This is an account of results in ChEMBL document CHEMBL1201862, “PubChem BioAssay data set” (2004).

Common to all, as to test: inhibition of tumour cell growth, NCI panel, 48 h
Assay [1] has as its system 786-0.
For assay [2], the system named is CAKI-1.
The test system of assay [3] is CCRF-CEM.
Assay [4] relates to EKVX.
Assay [5] relates to HCT-116.
The test system of assay [6] is HL-60.
For assay [7], the system named is HOP-62.
For assay [8], the system named is HT-29.
Assay [9] has as its system KM12.
In assay [10] the test system is MOLT-4.
The test system of assay [11] is NCI-H522.
Assay [12] has as its system NCI/ADR-RES.
The test system of assay [13] is OVCAR-3.
Assay [14] deals with OVCAR-8.
The test system of assay [15] is SW-620.
In assay [16] the test system is TK-10.
Assay [17] relates to U-251.
Assay [18] relates to UO-31.
For assay [19], the system named is HCC 2998.
For assay [20], the system named is HOP-92.

“And” between values parts separate entries of the source, which are not always exact repeats. Identical values can stand only once.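 Test compounds were applied to cells in 96-well plates for 48 hours at 5 doses. GI50 marks 50% less growth.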 The source made the active and inactive calls. No stated cut-off is given here; in the data, active = GI50 up to about 1.1 µM and inactive = higher.

Turning to `Cc1ccnc(NC(=S)Nc2cccc(Cl)c2)c1`, the GI50 in [1] was > 100 µM (inactive); in assay [2], > 100 µM (inactive); in assay [3], > 100 µM (inactive); in assay [4] it was 12.4 µM (inactive); in assay [5], > 100 µM (inactive); in assay [6], > 100 µM (inactive). For the same compound, the GI50 in assay [7] is 78.9 µM (inactive); in assay [8] it was > 100 µM (inactive); in assay [9], > 100 µM (inactive); in assay [10] it was > 100 µM (inactive); in assay [11], 0.02 µM (active); in assay [12], > 100 µM (inactive). In addition, the GI50 in assay [13], in assay [14], in assay [15], in [16], in assay [17] and in assay [18] was > 100 µM (inactive) each time.
Consider `CC(=O)OC1CC2CCC1(C)C2(C)C` (configuration not stated), for which the GI50 in assay [1], in [3], in assay [19], in assay [5], in assay [6] and in assay [7] was > 100 µM (inactive) in each case. Besides, the GI50 in assay [8], in assay [9], in assay [10], in assay [11], in [12] and in [13] was > 100 µM (inactive) each time. Moreover, the GI50 in assay [14], in assay [15], in [16], in assay [17] and in assay [18] was > 100 µM (inactive) throughout.
Consider `COc1cccc2c1C(=O)c1c(O)c3c(c(O)c1C2=O)C[C@@](O)(C(=O)CO)C[C@@H]3OC1CC(N(C)C)C(O)C(C)O1` (some centres not stated), for which the GI50 is < 0.0197 µM (active) in assay [1]; < 0.01 µM (active) in assay [2]; 0.0991 µM (active) in assay [3]; 0.0415 µM (active) in assay [4]; 0.0675 µM (active) in [19]; < 0.01 µM (active) in assay [5]. Moreover, the GI50 was 0.1 µM (active) in [6]; 0.0272 µM (active) in assay [7]; 0.031 µM (active) in [20]; < 0.01 µM (active) in assay [8]; < 0.016 µM (active) in [9]; 0.0159 µM (active) in assay [10]. The GI50 was < 0.011 µM (active) in [11]; 0.0644 µM (active) in assay [13]; < 0.0255 µM (active) in assay [14]; < 0.01 µM (active) in assay [15]; 0.0303 µM (active) in assay [16]; < 0.0134 µM (active) in assay [17]. The GI50 in [18] was 0.0204 µM (active).
For `O=c1[nH]c(=O)n(C2CC(O)C(CO)O2)cc1/N=N/NCCc1ccccc1` (configuration not stated), the GI50 in assay [1], in [2], in assay [3], in assay [4], in [5] and in assay [6] was > 100 µM (inactive) in each case. The GI50 in [7], in assay [8], in assay [9], in assay [10], in assay [11] and in assay [12] was > 100 µM (inactive) throughout. In addition, the GI50 in assay [13], in assay [14], in assay [16], in [17] and in [18] was > 100 µM (inactive) each time.
With `O=c1c2ccccc2nc(N/N=C/c2ccc([N+](=O)[O-])cc2)n1-c1ccccc1`, the GI50 in [1] was 5.37 µM (inactive); in [2], 21.6 µM (inactive); in assay [3] it was > 100 µM (inactive); in assay [4], 20 µM (inactive); in assay [5], 5.05 µM (inactive); in assay [6], > 100 µM (inactive). The GI50 was 13.3 µM (inactive) in [7]; > 100 µM (inactive) in [8]; 36.3 µM (inactive) in assay [9]; 77.3 µM (inactive) in [10]; 31.4 µM (inactive) in [11]; 13.4 µM (inactive) in [12]. Besides, the GI50 in assay [13] was 31.3 µM (inactive); in assay [14], 37.8 µM (inactive); in [16] it was 18 µM (inactive); in [17], 15.1 µM (inactive); in assay [18], > 100 µM (inactive).
Regarding `C=CCOC(=O)Cn1cnc2c(N)ncnc21`, the GI50 in [1], in assay [2], in [3], in [4], in assay [19] and in assay [5] was > 100 µM (inactive) throughout. In addition, the GI50 in assay [6], in assay [7], in assay [8], in assay [9], in assay [10] and in assay [12] was > 100 µM (inactive) each time. The GI50 in [14], in assay [15], in [16], in assay [17] and in [18] was > 100 µM (inactive) in each case.
Regarding `O=C(Cc1nc2ccccc2s1)C(=O)Nc1ccccc1C(F)(F)F`, the GI50 in [1], in assay [2], in assay [3], in assay [4], in assay [19] and in assay [5] was > 100 µM (inactive) throughout. For the same compound, the GI50 in assay [6] was > 100 µM (inactive); in assay [7] it was > 100 µM (inactive); in [20], 20.4 µM (inactive); in assay [8], > 100 µM (inactive); in [9] it was > 100 µM (inactive); in assay [10], > 100 µM (inactive). The GI50 in [11], in assay [13], in [14], in assay [15], in assay [16] and in [17] was > 100 µM (inactive) each time. Further, in [18], the GI50 was > 100 µM (inactive).
For `COC(C)(C)[C@@H]1CCCN1C1=C(C)C(=O)OC1`, the GI50 in assay [1], in assay [2], in assay [3], in assay [19], in [5] and in assay [6] was > 100 µM (inactive) throughout. For the same compound, the GI50 in [7], in assay [10], in assay [12], in [17] and in [18] was > 100 µM (inactive) each time.
With `COC(=O)[C@@H]1[C@H](O)[C@H](C)[C@H](O)[C@@](C)(O)/C=C\C=C(\C)C(=O)Nc2c(C)c(OC(C)=O)c3c(c2O)C(=O)C(C)=C2OCOC(=C23)/C(C)=C/[C@@](C)(O)[C@H](O)[C@@H](C)[C@H]1OC(C)=O`, the GI50 in [1] is > 100 µM (inactive) and 69.5 µM (inactive); in assay [2] it was 93.8 µM (inactive); in [3], 15.8 µM (inactive); in [4] it was 78.2 µM (inactive); in assay [19], 21.8 µM (inactive); in assay [5], 29.2 µM (inactive). The GI50 in assay [6] was 20.5 µM (inactive); in [7], 40.5 µM (inactive); in assay [20], > 66.8 µM (inactive); in assay [8], 38.5 µM (inactive) and 56.6 µM (inactive); in assay [9] it was 47.8 µM (inactive); in [10], 27.7 µM (inactive) and 61.7 µM (inactive). Also, the GI50 in [11] was 47.2 µM (inactive) and 21.5 µM (inactive); in [13] it was 43.1 µM (inactive) and 32 µM (inactive); in assay [14] it was 31.8 µM (inactive); in assay [15] it was 9.91 µM (inactive) and 59 µM (inactive); in assay [16], > 66.8 µM (inactive); in assay [17], 17.3 µM (inactive). Further, in assay [18], the GI50 is 25.9 µM (inactive).
Turning to `NNC(=S)N/N=C(\CC1OC(=O)c2ccccc21)c1ccccc1O` (configuration not stated), the GI50 in assay [1] is 43.3 µM (inactive); in [2], 71.8 µM (inactive); in assay [3] it was 25.9 µM (inactive); in assay [4] it was 78.7 µM (inactive); in assay [19], 32.7 µM (inactive); in assay [5] it was 36.6 µM (inactive). Also, the GI50 in [6] is 24.4 µM (inactive); in assay [7], 33 µM (inactive); in assay [20] it was 70.8 µM (inactive); in assay [8], 61.5 µM (inactive); in [9], 40.4 µM (inactive); in [10] it was 23 µM (inactive). Further, the GI50 was 22.8 µM (inactive) in assay [11]; 37.5 µM (inactive) in [13]; 30.8 µM (inactive) in assay [14]; 55.7 µM (inactive) in assay [15]; > 100 µM (inactive) in assay [16]; 17.3 µM (inactive) in assay [17]. For the same compound, the GI50 in assay [18] was 37.7 µM (inactive).
For the compound `O=C1C=Cc2c(-c3ccccc3)oc3cccc1c23`, the GI50 in assay [1] was 23.7 µM (inactive); in assay [2], 6.55 µM (inactive); in assay [3] it was 15 µM (inactive); in assay [4] it was 3.19 µM (inactive); in assay [19], 25.6 µM (inactive); in assay [5] it was 16.9 µM (inactive). In addition, the GI50 in assay [6] was 9.12 µM (inactive); in assay [7], 13.8 µM (inactive); in assay [20], 13.4 µM (inactive); in assay [8], 23.4 µM (inactive); in assay [9], 28.5 µM (inactive); in assay [10], 3.76 µM (inactive). For the same compound, the GI50 in [11] was 15.3 µM (inactive); in [13] it was 20.9 µM (inactive); in [14] it was 9.31 µM (inactive); in assay [15], 18.7 µM (inactive); in [16], 39.7 µM (inactive); in [17], 8.91 µM (inactive). Besides, the GI50 in assay [18] was 6.35 µM (inactive).
